#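 GI50 = concentration required for 50% inhibition of growth. TGI marks complete inhibition of growth.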
# What was measured:
# Assay in all cases: NCI-60 cell line screen, 384-well format
# HT29 colon = system: HT29 colon
# UO-31 renal = system: UO-31 renal
# SN12C renal = system: SN12C renal
# HCT-116 colon = system: HCT-116 colon
# 786-0 renal = system: 786-0 renal
# UACC-62 melanoma = system: UACC-62 melanoma
# MCF7 breast = system: MCF7 breast
# MDA-MB-435 melanoma = system: MDA-MB-435 melanoma
# SW-620 colon = system: SW-620 colon
# SF-295 CNS = system: SF-295 CNS
# SR leukemia = system: SR leukemia
# SF-268 CNS = system: SF-268 CNS
# IGROV1 ovarian = system: IGROV1 ovarian
# NCI-H226 lung = system: NCI-H226 lung
# NCI-H322M lung = system: NCI-H322M lung
# MDA-MB-231 breast = system: MDA-MB-231 breast
# M14 melanoma = system: M14 melanoma
# LOX IMVI melanoma = system: LOX IMVI melanoma
# HCC-2998 colon = system: HCC-2998 colon
# UACC-257 melanoma = system: UACC-257 melanoma
# OVCAR-4 ovarian = system: OVCAR-4 ovarian
# PC-3 prostate = system: PC-3 prostate
# CAKI-1 renal = system: CAKI-1 renal
# MDA-MB-468 breast = system: MDA-MB-468 breast
# SF-539 CNS = system: SF-539 CNS
# HCT-15 colon = system: HCT-15 colon
# NCI-H522 lung = system: NCI-H522 lung
# HOP-92 NSCLC = system: HOP-92 NSCLC
# A549 NSCLC = system: A549 NSCLC
# HS 578T breast = system: HS 578T breast
# EKVX NSCLC = system: EKVX NSCLC
# HOP-62 NSCLC = system: HOP-62 NSCLC
# ACHN renal = system: ACHN renal
# T-47D breast = system: T-47D breast
# OVCAR-3 ovarian = system: OVCAR-3 ovarian
# MALME-3M melanoma = system: MALME-3M melanoma
# CCRF-CEM leukemia = system: CCRF-CEM leukemia
# A498 renal = system: A498 renal
# COLO 205 colon = system: COLO 205 colon
# SNB-19 CNS = system: SNB-19 CNS
# SK-MEL-2 melanoma = system: SK-MEL-2 melanoma
# BT-549 breast = system: BT-549 breast
# SNB-75 CNS = system: SNB-75 CNS
# SK-MEL-28 melanoma = system: SK-MEL-28 melanoma
# OVCAR-5 ovarian = system: OVCAR-5 ovarian
# U251 glioblastoma = system: U251 glioblastoma
# RPMI-8226 leukemia = system: RPMI-8226 leukemia
# HL-60(TB) leukemia = system: HL-60(TB) leukemia
# TK-10 renal = system: TK-10 renal
# DU-145 prostate = system: DU-145 prostate
# MOLT-4 leukemia = system: MOLT-4 leukemia
# KM12 colon = system: KM12 colon
# SK-MEL-5 melanoma = system: SK-MEL-5 melanoma
# NCI/ADR-RES ovarian = system: NCI/ADR-RES ovarian
# NCI-H23 lung = system: NCI-H23 lung
# RXF 393 renal = system: RXF 393 renal
# NCI-H460 NSCLC = system: NCI-H460 NSCLC
# SK-OV-3 ovarian = system: SK-OV-3 ovarian
# OVCAR-8 ovarian = system: OVCAR-8 ovarian
# K-562 leukemia = system: K-562 leukemia
structure (smiles),measurement,setting,value
N#Cc1ccnc(N2C(=O)CC[C@H]2C(=O)N(c2cncc(F)c2)[C@H](C(=O)NC2CC(F)(F)C2)c2ccccc2Cl)c1,GI50,HT29 colon,> 95.3 µM
same,TGI,HT29 colon,> 100 µM
same,GI50,UO-31 renal,> 100 µM
same,TGI,UO-31 renal,> 100 µM
same,GI50,SN12C renal,> 100 µM
same,TGI,SN12C renal,> 100 µM
same,GI50,HCT-116 colon,28.6 µM
same,TGI,HCT-116 colon,> 100 µM
same,GI50,786-0 renal,> 100 µM
same,TGI,786-0 renal,> 100 µM
same,GI50,UACC-62 melanoma,> 100 µM
same,TGI,UACC-62 melanoma,> 100 µM
same,GI50,MCF7 breast,> 100 µM
same,TGI,MCF7 breast,> 100 µM
same,GI50,MDA-MB-435 melanoma,> 100 µM
same,TGI,MDA-MB-435 melanoma,> 100 µM
same,GI50,SW-620 colon,> 100 µM
same,TGI,SW-620 colon,> 100 µM
same,GI50,SF-295 CNS,> 100 µM
same,TGI,SF-295 CNS,> 100 µM
same,GI50,SR leukemia,31.4 µM
same,TGI,SR leukemia,> 95.8 µM
same,GI50,SF-268 CNS,> 100 µM
same,TGI,SF-268 CNS,> 100 µM
same,GI50,IGROV1 ovarian,> 100 µM
same,TGI,IGROV1 ovarian,> 100 µM
same,GI50,NCI-H226 lung,> 84.9 µM
same,TGI,NCI-H226 lung,> 100 µM
same,GI50,NCI-H322M lung,> 100 µM
same,TGI,NCI-H322M lung,> 100 µM
same,GI50,MDA-MB-231 breast,> 100 µM
same,TGI,MDA-MB-231 breast,> 100 µM
same,GI50,M14 melanoma,> 100 µM
same,TGI,M14 melanoma,> 100 µM
same,GI50,LOX IMVI melanoma,> 100 µM
same,TGI,LOX IMVI melanoma,> 100 µM
same,GI50,HCC-2998 colon,> 100 µM
same,TGI,HCC-2998 colon,> 100 µM
same,GI50,UACC-257 melanoma,> 100 µM
same,TGI,UACC-257 melanoma,> 100 µM
same,GI50,OVCAR-4 ovarian,> 86.7 µM
same,TGI,OVCAR-4 ovarian,> 100 µM
same,GI50,PC-3 prostate,> 100 µM
same,TGI,PC-3 prostate,> 100 µM
same,GI50,CAKI-1 renal,> 55.4 µM
same,TGI,CAKI-1 renal,> 82.9 µM
same,GI50,MDA-MB-468 breast,> 100 µM
same,TGI,MDA-MB-468 breast,> 100 µM
same,GI50,SF-539 CNS,> 100 µM
same,TGI,SF-539 CNS,> 100 µM
same,GI50,HCT-15 colon,> 100 µM
same,TGI,HCT-15 colon,> 100 µM
same,GI50,NCI-H522 lung,97.9 µM
same,TGI,NCI-H522 lung,> 100 µM
same,GI50,HOP-92 NSCLC,34.3 µM
same,TGI,HOP-92 NSCLC,> 100 µM
same,GI50,A549 NSCLC,> 90.8 µM
same,TGI,A549 NSCLC,> 100 µM
same,GI50,HS 578T breast,> 87.8 µM
same,TGI,HS 578T breast,> 100 µM
same,GI50,EKVX NSCLC,> 100 µM
same,TGI,EKVX NSCLC,> 100 µM
same,GI50,HOP-62 NSCLC,> 100 µM
same,TGI,HOP-62 NSCLC,> 100 µM
same,GI50,ACHN renal,> 100 µM
same,TGI,ACHN renal,> 100 µM
same,GI50,T-47D breast,> 100 µM
same,TGI,T-47D breast,> 100 µM
same,GI50,OVCAR-3 ovarian,> 96.1 µM
same,TGI,OVCAR-3 ovarian,> 100 µM
same,GI50,MALME-3M melanoma,> 100 µM
same,TGI,MALME-3M melanoma,> 100 µM
same,GI50,CCRF-CEM leukemia,> 72.8 µM
same,TGI,CCRF-CEM leukemia,> 100 µM
same,GI50,A498 renal,> 100 µM
same,TGI,A498 renal,> 100 µM
same,GI50,COLO 205 colon,> 100 µM
same,TGI,COLO 205 colon,> 100 µM
same,GI50,SNB-19 CNS,> 100 µM
same,TGI,SNB-19 CNS,> 100 µM
same,GI50,SK-MEL-2 melanoma,> 100 µM
same,TGI,SK-MEL-2 melanoma,> 100 µM
same,GI50,BT-549 breast,> 100 µM
same,TGI,BT-549 breast,> 100 µM
same,GI50,SNB-75 CNS,> 100 µM
same,TGI,SNB-75 CNS,> 100 µM
same,GI50,SK-MEL-28 melanoma,> 100 µM
same,TGI,SK-MEL-28 melanoma,> 100 µM
same,GI50,OVCAR-5 ovarian,> 100 µM
same,TGI,OVCAR-5 ovarian,> 100 µM
same,GI50,U251 glioblastoma,> 100 µM
same,TGI,U251 glioblastoma,> 100 µM
same,GI50,RPMI-8226 leukemia,> 100 µM
same,TGI,RPMI-8226 leukemia,> 100 µM
same,GI50,HL-60(TB) leukemia,> 100 µM
same,TGI,HL-60(TB) leukemia,> 100 µM
same,GI50,TK-10 renal,> 100 µM
same,TGI,TK-10 renal,> 100 µM
same,GI50,DU-145 prostate,> 100 µM
same,TGI,DU-145 prostate,> 100 µM
same,GI50,MOLT-4 leukemia,30.3 µM
same,TGI,MOLT-4 leukemia,> 100 µM
same,GI50,KM12 colon,> 100 µM
same,TGI,KM12 colon,> 100 µM
same,GI50,SK-MEL-5 melanoma,> 100 µM
same,TGI,SK-MEL-5 melanoma,> 100 µM
same,GI50,NCI/ADR-RES ovarian,> 100 µM
same,TGI,NCI/ADR-RES ovarian,> 100 µM
same,GI50,NCI-H23 lung,> 89.5 µM
same,TGI,NCI-H23 lung,> 100 µM
same,GI50,RXF 393 renal,> 77.2 µM
same,TGI,RXF 393 renal,> 100 µM
same,GI50,NCI-H460 NSCLC,89.7 µM
same,TGI,NCI-H460 NSCLC,> 100 µM
same,GI50,SK-OV-3 ovarian,> 100 µM
same,TGI,SK-OV-3 ovarian,> 100 µM
same,GI50,OVCAR-8 ovarian,> 100 µM
same,TGI,OVCAR-8 ovarian,> 100 µM
same,GI50,K-562 leukemia,99.2 µM
same,TGI,K-562 leukemia,> 100 µM

# — PubChem BioAssay (NCI)
